Holding throughout (type): in vivo
Experiment [1] concerns green peach aphid (Myzus persicae). Put plainly: Green peach aphid control through systemic means (artificial diet, 96-well plates). Particulars: 72 h, adult aphids on treated diet, 3 days, read-out: mortality in comparison with untreated controls. An excerpt: B.1 Green Peach Aphid (Myzus persicae)
For evaluating control of green peach aphid (Myzus persicae) through systemic means, the test unit consisted of 96-well-microtiter plates containing liquid artificial diet under an artificial mem brane.
The compounds were formulated using a solution containing 75% v/v water and 25% v/v DMSO. Different concentrations of formulated compounds were pipetted into the aphid diet, using a custom built pipetter, at two replications.
After application, 5 - 8 adult aphids were placed on the artificial membrane inside the microtiter plate wells. The aphids were then allowed to suck on the treated aphid diet and incubated at about 23 ± 1°C and about 50 ± 5 % relative humidity for 3 days. Aphid mortality and fecundity was then visually assessed.

Experiment [2] deals with tobacco budworm (Heliothis virescens). The experiment is described as follows: Tobacco budworm control (insect diet with eggs, 96-well plates). The settings on record: for mortality at 2500 ppm: 120 h, egg and larval mortality, 5 days, read-out: mortality in comparison with untreated controls; for mortality at 25 ppm: test B.2, 25 ppm, comparison with prior art, read-out: % mortality in comparison to untreated controls. The protocol:
B.2 Tobacco budworm (Heliothis virescens)
For evaluating control of tobacco budworm (Heliothis virescens), the test unit consisted of 96-well-microtiter plates containing an insect diet and 15-25 H. virescens eggs.
The compounds were formulated using a solution containing 75% v/v water and 25% v/v DMSO. Different concentrations of formulated compounds were sprayed onto the insect diet at 10µl, using a custom-built micro atomizer, at two replications.
After application, microtiter plates were incubated at about 28 ± 1°C and about 80 ± 5 % relative humidity for 5 days. Egg and larval mortality was then visually assessed.

Experiment [3] deals with boll weevil (Anthonomus grandis). The experiment is described as follows: Boll weevil control (insect diet with eggs, 96-well plates). Particulars: 120 h, egg and larval mortality, 5 days, read-out: mortality in comparison with untreated controls. The protocol: B.3 Boll weevil (Anthonomus grandis)
For evaluating control of boll weevil (Anthonomus grandis), the test unit consisted of 96-well-microtiter plates containing an insect diet and 5-10 A. grandis eggs.
The compounds were formulated using a solution containing 75% v/v water and 25% v/v DMSO. Different concentrations of formulated compounds were sprayed onto the insect diet at 5µl, using a custom-built micro atomizer, at two replications.
After application, microtiter plates were incubated at about 25 ± 1°C and about 75 ± 5 % relative humidity for 5 days. Egg and larval mortality was then visually assessed.

Experiment [4] concerns Southern armyworm (Spodoptera eridania), 2nd instar larvae. Put plainly: Southern armyworm foliar spray test on lima bean plants. The settings on record: 96 h, 4 days after treatment, read-out: mortality in comparison with untreated controls. The protocol: B.4. Southern armyworm (Spodoptera eridania), 2nd instar larvae
The active compounds were formulated by a Tecan liquid handler in 100% cyclohexanone as a 10,000-ppm solution supplied in tubes. The 10,000-ppm solution was serially diluted in 100% cyclohexanone to make interim solutions. These served as stock solutions for which final dilutions were made by the Tecan in 50% acetone:50% water (v/v) into 10 or 20ml glass vials. A non-ionic surfactant (Kinetic®) was included in the solution at a volume of 0.01% (v/v). The vials were then inserted into an automated electrostatic sprayer equipped with an atomizing nozzle for application to plants/insects. Lima bean plants (variety Sieva) were grown 2 plants to a pot and selected for treatment at the 1st true leaf stage. Test solutions were sprayed onto the foliage by an automated electrostatic plant sprayer equipped with an atomizing spray nozzle. The plants were dried in the sprayer fume hood and then removed from the sprayer. Each pot was placed into perforated plastic bags with a zip closure. Ten to 11 armyworm larvae were placed into the bag and the bags zipped closed. Test plants were maintained in a growth room at about 25°C and about 20-40% relative humidity for 4 days, avoiding direct exposure to fluorescent light (14:10 light:dark photoperiod) to prevent trapping of heat inside the bags. Mortality and reduced feeding were assessed 4 days after treatment, compared to untreated control plants.

Experiment [5] deals with yellow fever mosquito (Aedes aegypti). Put plainly: whole plant or invertebrate. Particulars: 48 h, larval mortality, 2 days, read-out: mortality in comparison with untreated controls. The protocol: B.5 Yellow fever mosquito (Aedes aegypti)
For evaluating control of yellow fever mosquito (Aedes aegypti) the test unit consisted of 96-well-microtiter plates containing 200µl of tap water per well and 5-15 freshly hatched A. aegypti larvae.
The active compounds were formulated using a solution containing 75% (v/v) water and 25% (v/v) DMSO. Different concentrations of formulated compounds or mixtures were sprayed onto the insect diet at 2.5µl, using a custom-built micro atomizer, at two replications.
After application, microtiter plates were incubated at 28 ± 1°C, 80 ± 5 % RH for 2 days. Larval mortality was then visually assessed.

A value given as a limit tells only on which side of the number the result lay.

`CC(NC(=O)c1cc(C(F)(F)F)cc(C(F)(F)F)c1)c1nccnc1-c1ncn(-c2cccnc2)n1` (stereo not drawn) [Compound I-1, N-[1-[3-[1-(3-pyridyl)-1,2,4-triazol-3-yl]pyrazin-2-yl]ethyl]-3,5-bis(trifluoromethyl)benzamide]: the mortality at 2500 ppm in experiment [1], in experiment [2], in experiment [3] and in experiment [5] was at least 75% each time. For the same compound, in experiment [4], the mortality (commonly the percentage killed) at 300 ppm is at least 75%.
As for `CC(c1nccnc1-c1ncn(-c2ccccn2)n1)N(C)C(=O)c1cc(C(F)(F)F)cc(C(F)(F)F)c1` (stereo not drawn) [Compound I-17, N-methyl-N-[1-[3-[1-(2-pyridyl)-1,2,4-triazol-3-yl]pyrazin-2-yl]ethyl]-3,5-bis(trifluoromethyl)benzamide], the mortality at 2500 ppm in experiment [1], in experiment [2], in experiment [3] and in experiment [5] was at least 75% throughout. Moreover, in experiment [4], the mortality at 300 ppm is at least 75%.
Regarding `CC(NC(=O)c1cc(C(F)(F)F)cc(C(F)(F)F)c1)c1nccnc1-c1ncn(-c2ccccn2)n1` (stereo not drawn) [Compound I-6, N-[1-[3-[1-(2-pyridyl)-1,2,4-triazol-3-yl]pyrazin-2-yl]ethyl]-3,5-bis(trifluoromethyl)benzamide], the mortality at 2500 ppm in experiment [1], in experiment [2], in experiment [3] and in experiment [5] was at least 75% throughout. For the same compound, in experiment [2], the mortality at 25 ppm was determined as 100%. For the same compound, the mortality at 300 ppm in experiment [4] was at least 75%.
For the compound `CC(NC(=O)c1cc(C(F)(F)F)cc(C(F)(F)F)c1)c1nccnc1-c1ncn(-c2cccnc2Br)n1` (stereo not drawn) [Compound I-4, N-[1-[3-[1-(2-bromo-3-pyridyl)-1,2,4-triazol-3-yl]pyrazin-2-yl]ethyl]-3,5-bis(trifluoromethyl)benzamide], the mortality at 2500 ppm in experiment [1], in experiment [2], in experiment [3] and in experiment [5] was at least 75% each time. Moreover, the mortality at 300 ppm in experiment [4] is at least 75%.
As to `CC(NC(=O)c1cc(C(F)(F)F)cc(C(F)(F)F)c1)c1nccnc1-c1ncn(-c2cccnc2N)n1` (stereo not drawn) [Compound I-2, N-[1-[3-[1-(2-amino-3-pyridyl)-1,2,4-triazol-3-yl]pyrazin-2-yl]ethyl]-3,5-bis(trifluoromethyl)benzamide], the mortality at 2500 ppm in experiment [1], in experiment [2], in experiment [3] and in experiment [5] was at least 75% in each case. In addition, the mortality at 300 ppm in experiment [4] is at least 75%.
`CC(NC(=O)c1cc(C(F)(F)F)cc(C(F)(F)F)c1)c1nccnc1-c1ncn(C)n1` (stereo not drawn) [WO2023/025617 I1-12, reference compound]: the mortality at 25 ppm in experiment [2] is 31%.
As for `CC(NC(=O)c1cc(C(F)(F)F)cc(C(F)(F)F)c1)c1nccnc1-c1ncn(-c2cccnc2[N+](=O)[O-])n1` (stereo not drawn) [Compound I-3, N-[1-[3-[1-(2-nitro-3-pyridyl)-1,2,4-triazol-3-yl]pyrazin-2-yl]ethyl]-3,5-bis(trifluoromethyl)benzamide], the mortality at 2500 ppm in experiment [2] and in experiment [3] was at least 75% each time. Also, in experiment [4], the mortality at 300 ppm is at least 75%.

The record behind these values is patent publication EP4488269A1, “TRIAZOLE COMPOUNDS FOR THE CONTROL OF INVERTEBRATE PESTS” (BASF SE, priority 2023, dated 2025).
